Data taken from ChEMBL document CHEMBL4800722, “Data for DCP probe BI 605906” (2021).

Columns and labels:
[1] = molecular target: Serine/threonine-protein kinase Nek6 (Homo sapiens) (UniProt Q9HC98); details: Compound concentration 1.0 uM
[2] = molecular target: 5-hydroxytryptamine receptor 1E (Homo sapiens) (UniProt P28566); details: Compound concentration 10.0 uM
[3] = molecular target: Sodium-dependent noradrenaline transporter (Homo sapiens) (UniProt P23975); details: Compound concentration 10.0 uM
[4] = molecular target: Casein kinase I isoform alpha-like (Homo sapiens) (UniProt Q8N752); test: CSNK1A1L Invitrogen Lab (UK) kinase screen (BI); details: Compound concentration 1.0 uM
[5] = molecular target: STE20/SPS1-related proline-alanine-rich protein kinase (Homo sapiens) (UniProt Q9UEW8); test: STK39 (STLK3) Invitrogen Lab (UK) kinase screen (BI); details: Compound concentration 1.0 uM
[6] = molecular target: AMPK alpha1/beta1/gamma3 (Homo sapiens) (UniProt Q9Y478+Q13131+Q9UGI9); test: AMPK (A1/B1/G3) Invitrogen Lab (UK) kinase screen (BI); format: protein-complex assay; details: Compound concentration 1.0 uM
[7] = molecular target: Amine oxidase [flavin-containing] A (MAOA) (Homo sapiens, UniProt P21397); test: MAOA Eurofins SafetyScreen44 (BI); design: mode of action inhibitor; details: compound concentration 10 uM, read-out: % Ctrl
[8] = molecular target: Serine/threonine-protein kinase greatwall (Homo sapiens) (UniProt Q96GX5); test: MASTL Invitrogen Lab (UK) kinase screen (BI); details: Compound concentration 1.0 uM
[9] = molecular target: Rho-associated protein kinase 2 (Homo sapiens) (UniProt O75116); test: ROCKII DUNDEE kinase screen (BI); details: Rattus norvegicus; Compound concentration 10.0 uM
[10] = molecular target: Nicotinic Acetylcholine Receptor (Homo sapiens) (UniProt P02708+P07510+P11230+P17787+P30926+P32297+P43681+Q07001+Q15822+Q9UGM1+Q15825+P30532+Q04844+P36544+Q9GZZ6+Q05901); details: Compound concentration 10.0 uM
[11] = molecular target: Serine/threonine-protein kinase MRCK gamma (Homo sapiens) (UniProt Q6DT37); test: CDC42 BPG (MRCKG) Invitrogen Lab (UK) kinase screen (BI); details: Compound concentration 1.0 uM
[12] = molecular target: MAP/microtubule affinity-regulating kinase 3 (Homo sapiens) (UniProt P27448); test: MARK3 DUNDEE kinase screen (BI); details: Compound concentration 10.0 uM
[13] = molecular target: G protein-coupled receptor kinase 3 (Homo sapiens) (UniProt P35626); details: Compound concentration 1.0 uM
[14] = molecular target: Voltage-dependent N-type calcium channel subunit alpha-1B (Rattus norvegicus) (UniProt Q02294); test: CA+/N/RA Eurofins SafetyScreen44 (BI); details: Compound concentration 10.0 uM
[15] = molecular target: Inhibitor of nuclear factor kappa-B kinase subunit alpha (Homo sapiens) (UniProt O15111); test: CHUK_IKKA Invitrogen Lab (UK) kinase screen (BI)
[16] = molecular target: Calcium/calmodulin-dependent protein kinase type 1 (Homo sapiens) (UniProt Q14012); test: CAMK1 DUNDEE kinase screen (BI); details: Compound concentration 10.0 uM
[17] = molecular target: Tyrosine-protein kinase JAK1 (Homo sapiens) (UniProt P23458); details: Compound concentration 1.0 uM
[18] = molecular target: Proto-oncogene tyrosine-protein kinase Src (Homo sapiens) (UniProt P12931); test: SRC DUNDEE kinase screen (BI); details: Gallus gallus; Compound concentration 10.0 uM
[19] = molecular target: TGF-beta receptor type-1 (Homo sapiens) (UniProt P36897); details: Compound concentration 1.0 uM
[20] = molecular target: cAMP-dependent protein kinase (PKA) (Homo sapiens) (UniProt P22694+P17612+P22612); test: PKA(REC) DUNDEE kinase screen (BI); format: protein assay; details: Compound concentration 10.0 uM
[21] = molecular target: Interleukin-1 receptor-associated kinase 4 (Homo sapiens) (UniProt Q9NWZ3)
[22] = molecular target: 3-hydroxy-3-methylglutaryl-coenzyme A reductase (Rattus norvegicus) (UniProt P51639); test: HMGCOARED Eurofins SafetyScreen44 (BI); details: Compound concentration 10.0 uM
[23] = molecular target: Testis-specific serine/threonine-protein kinase 2 (Homo sapiens) (UniProt Q96PF2); details: Compound concentration 1.0 uM
[24] = molecular target: Serine/threonine-protein kinase PAK 4 (Homo sapiens) (UniProt O96013)
[25] = molecular target: Hormonally up-regulated neu tumor-associated kinase (Homo sapiens) (UniProt P57058); details: Compound concentration 1.0 uM
[26] = molecular target: Serine/threonine-protein kinase WNK1 (Homo sapiens) (UniProt Q9H4A3); details: Compound concentration 1.0 uM
[27] = molecular target: MAP kinase-interacting serine/threonine-protein kinase 2 (Homo sapiens) (UniProt Q9HBH9); test: MNK2 ALPHA DUNDEE kinase screen (BI); details: Compound concentration 10.0 uM
[28] = molecular target: Endothelin-1 receptor (Homo sapiens) (UniProt P25101); details: Compound concentration 100.0 uM
[29] = molecular target: Muscle, skeletal receptor tyrosine-protein kinase (Homo sapiens) (UniProt O15146); test: MUSK Invitrogen Lab (UK) kinase screen (BI); details: Compound concentration 1.0 uM
[30] = molecular target: Calpain-1 catalytic subunit (Homo sapiens) (UniProt P07384); details: Compound concentration 10.0 uM
[31] = molecular target: LIM domain kinase 2 (Homo sapiens) (UniProt P53671); details: Compound concentration 1.0 uM
[32] = molecular target: Serine/threonine-protein kinase ULK3 (Homo sapiens) (UniProt Q6PHR2); details: Compound concentration 1.0 uM
[33] = molecular target: Phosphatidylinositol 3-kinase C2 domain-containing subunit gamma (Homo sapiens) (UniProt O75747); details: Compound concentration 1.0 uM
[34] = molecular target: Platelet-derived growth factor receptor beta (Homo sapiens) (UniProt P09619)
[35] = molecular target: Ribosomal protein S6 kinase beta-1 (Homo sapiens) (UniProt P23443); test: S6K1 DUNDEE kinase screen (BI); details: Compound concentration 10.0 uM
[36] = molecular target: Tyrosine-protein kinase ABL1 (Homo sapiens) (UniProt P00519)
[37] = molecular target: Serine/threonine-protein kinase PAK 3 (Homo sapiens) (UniProt O75914); details: Compound concentration 1.0 uM
[38] = molecular target: Mitogen-activated protein kinase kinase kinase 8 (Homo sapiens) (UniProt P41279); details: Compound concentration 1.0 uM
[39] = molecular target: Ribosomal protein S6 kinase alpha-1 (Homo sapiens) (UniProt Q15418); test: MAPKAPK1A DUNDEE kinase screen (BI); details: Rattus norvegicus; Compound concentration 10.0 uM

Sequence of Interleukin-1 receptor-associated kinase 4 (Homo sapiens) (Q9NWZ3 whole entry): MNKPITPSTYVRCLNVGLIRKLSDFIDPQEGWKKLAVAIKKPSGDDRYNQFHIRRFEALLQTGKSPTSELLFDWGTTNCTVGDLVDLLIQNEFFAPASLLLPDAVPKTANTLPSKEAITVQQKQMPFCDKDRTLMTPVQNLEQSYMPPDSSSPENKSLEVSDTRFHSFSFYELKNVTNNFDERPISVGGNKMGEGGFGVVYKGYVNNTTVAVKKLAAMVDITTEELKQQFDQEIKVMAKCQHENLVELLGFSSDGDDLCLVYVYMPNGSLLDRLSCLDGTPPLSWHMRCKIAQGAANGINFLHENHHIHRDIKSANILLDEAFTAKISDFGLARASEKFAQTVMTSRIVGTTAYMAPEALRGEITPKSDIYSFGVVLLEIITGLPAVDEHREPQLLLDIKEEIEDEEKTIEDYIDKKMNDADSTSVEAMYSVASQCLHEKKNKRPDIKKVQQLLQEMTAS
Sequence of Tyrosine-protein kinase ABL1 (Homo sapiens) (P00519 whole entry): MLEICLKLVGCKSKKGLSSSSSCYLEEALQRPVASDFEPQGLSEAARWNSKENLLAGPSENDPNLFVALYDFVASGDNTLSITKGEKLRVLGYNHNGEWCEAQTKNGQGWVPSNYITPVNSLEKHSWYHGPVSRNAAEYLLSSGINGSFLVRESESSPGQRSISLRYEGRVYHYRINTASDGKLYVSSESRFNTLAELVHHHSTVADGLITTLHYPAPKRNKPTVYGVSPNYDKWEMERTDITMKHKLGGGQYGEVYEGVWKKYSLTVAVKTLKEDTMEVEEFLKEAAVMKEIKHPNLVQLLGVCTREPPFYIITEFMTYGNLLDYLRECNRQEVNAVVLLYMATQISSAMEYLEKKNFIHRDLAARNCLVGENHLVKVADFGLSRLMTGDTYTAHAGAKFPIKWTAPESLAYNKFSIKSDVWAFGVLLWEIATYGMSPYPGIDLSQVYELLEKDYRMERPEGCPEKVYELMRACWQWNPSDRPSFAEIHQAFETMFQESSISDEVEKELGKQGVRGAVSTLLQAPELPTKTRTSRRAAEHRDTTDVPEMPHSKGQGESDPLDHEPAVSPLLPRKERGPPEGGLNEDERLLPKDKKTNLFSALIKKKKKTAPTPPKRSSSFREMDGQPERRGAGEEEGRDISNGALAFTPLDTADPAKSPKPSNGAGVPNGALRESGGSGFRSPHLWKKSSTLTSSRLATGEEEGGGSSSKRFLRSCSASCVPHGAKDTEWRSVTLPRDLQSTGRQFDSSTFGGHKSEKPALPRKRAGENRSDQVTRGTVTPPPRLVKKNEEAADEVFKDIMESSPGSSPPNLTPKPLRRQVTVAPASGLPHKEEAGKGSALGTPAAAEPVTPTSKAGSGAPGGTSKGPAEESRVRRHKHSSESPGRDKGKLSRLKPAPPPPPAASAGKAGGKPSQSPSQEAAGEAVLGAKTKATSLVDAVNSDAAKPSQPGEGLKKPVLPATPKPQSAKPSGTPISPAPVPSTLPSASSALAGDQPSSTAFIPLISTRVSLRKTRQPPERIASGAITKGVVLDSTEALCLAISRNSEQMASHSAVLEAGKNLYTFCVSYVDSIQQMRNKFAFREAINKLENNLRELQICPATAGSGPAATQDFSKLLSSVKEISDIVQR
Sequence of Platelet-derived growth factor receptor beta (Homo sapiens) (P09619 whole entry): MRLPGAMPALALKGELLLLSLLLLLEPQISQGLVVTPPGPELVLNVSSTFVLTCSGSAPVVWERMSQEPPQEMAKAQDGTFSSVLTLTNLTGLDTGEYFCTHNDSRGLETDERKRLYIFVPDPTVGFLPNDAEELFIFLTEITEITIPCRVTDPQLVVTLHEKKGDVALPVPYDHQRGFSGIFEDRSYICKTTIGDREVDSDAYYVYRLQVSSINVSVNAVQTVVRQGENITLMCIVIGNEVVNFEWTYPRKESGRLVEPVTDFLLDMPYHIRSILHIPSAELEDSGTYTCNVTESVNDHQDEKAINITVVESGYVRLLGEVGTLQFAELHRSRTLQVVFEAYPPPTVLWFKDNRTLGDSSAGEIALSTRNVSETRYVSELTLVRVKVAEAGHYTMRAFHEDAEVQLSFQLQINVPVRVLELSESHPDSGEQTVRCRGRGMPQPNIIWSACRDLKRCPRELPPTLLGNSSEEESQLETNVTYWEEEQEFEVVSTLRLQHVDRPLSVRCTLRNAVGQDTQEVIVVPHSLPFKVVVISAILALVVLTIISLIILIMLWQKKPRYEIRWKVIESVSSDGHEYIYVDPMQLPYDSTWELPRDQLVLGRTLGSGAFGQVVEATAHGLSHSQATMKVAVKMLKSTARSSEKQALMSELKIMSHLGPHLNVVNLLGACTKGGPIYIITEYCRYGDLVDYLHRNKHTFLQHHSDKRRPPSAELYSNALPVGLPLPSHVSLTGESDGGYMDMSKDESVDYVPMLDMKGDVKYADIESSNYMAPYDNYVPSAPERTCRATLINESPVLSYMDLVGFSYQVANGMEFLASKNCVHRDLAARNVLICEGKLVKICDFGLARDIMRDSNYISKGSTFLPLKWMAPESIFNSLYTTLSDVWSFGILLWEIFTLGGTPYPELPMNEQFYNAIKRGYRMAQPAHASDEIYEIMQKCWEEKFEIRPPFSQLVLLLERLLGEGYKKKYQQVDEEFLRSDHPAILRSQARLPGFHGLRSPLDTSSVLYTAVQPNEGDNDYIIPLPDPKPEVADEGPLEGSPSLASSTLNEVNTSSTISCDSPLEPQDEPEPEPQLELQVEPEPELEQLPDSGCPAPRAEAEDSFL
Sequence of Serine/threonine-protein kinase PAK 4 (Homo sapiens) (O96013 whole entry, looked up): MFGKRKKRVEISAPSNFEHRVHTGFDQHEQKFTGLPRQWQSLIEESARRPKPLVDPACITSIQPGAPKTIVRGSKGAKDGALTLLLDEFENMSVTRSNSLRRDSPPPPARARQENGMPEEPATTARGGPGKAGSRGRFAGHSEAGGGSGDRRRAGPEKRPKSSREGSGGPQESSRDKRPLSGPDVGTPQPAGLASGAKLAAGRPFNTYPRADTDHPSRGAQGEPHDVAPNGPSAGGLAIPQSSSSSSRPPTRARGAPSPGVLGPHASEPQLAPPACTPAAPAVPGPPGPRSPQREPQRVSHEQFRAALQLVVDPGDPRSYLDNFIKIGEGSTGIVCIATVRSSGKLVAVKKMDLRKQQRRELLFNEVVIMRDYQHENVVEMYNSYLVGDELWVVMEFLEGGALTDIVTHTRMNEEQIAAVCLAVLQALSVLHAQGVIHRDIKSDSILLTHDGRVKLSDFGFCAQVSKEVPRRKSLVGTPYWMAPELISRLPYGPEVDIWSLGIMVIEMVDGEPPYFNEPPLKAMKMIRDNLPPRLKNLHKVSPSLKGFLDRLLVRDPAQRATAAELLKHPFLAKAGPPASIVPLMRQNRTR
Sequence of Inhibitor of nuclear factor kappa-B kinase subunit alpha (Homo sapiens) (O15111 whole entry): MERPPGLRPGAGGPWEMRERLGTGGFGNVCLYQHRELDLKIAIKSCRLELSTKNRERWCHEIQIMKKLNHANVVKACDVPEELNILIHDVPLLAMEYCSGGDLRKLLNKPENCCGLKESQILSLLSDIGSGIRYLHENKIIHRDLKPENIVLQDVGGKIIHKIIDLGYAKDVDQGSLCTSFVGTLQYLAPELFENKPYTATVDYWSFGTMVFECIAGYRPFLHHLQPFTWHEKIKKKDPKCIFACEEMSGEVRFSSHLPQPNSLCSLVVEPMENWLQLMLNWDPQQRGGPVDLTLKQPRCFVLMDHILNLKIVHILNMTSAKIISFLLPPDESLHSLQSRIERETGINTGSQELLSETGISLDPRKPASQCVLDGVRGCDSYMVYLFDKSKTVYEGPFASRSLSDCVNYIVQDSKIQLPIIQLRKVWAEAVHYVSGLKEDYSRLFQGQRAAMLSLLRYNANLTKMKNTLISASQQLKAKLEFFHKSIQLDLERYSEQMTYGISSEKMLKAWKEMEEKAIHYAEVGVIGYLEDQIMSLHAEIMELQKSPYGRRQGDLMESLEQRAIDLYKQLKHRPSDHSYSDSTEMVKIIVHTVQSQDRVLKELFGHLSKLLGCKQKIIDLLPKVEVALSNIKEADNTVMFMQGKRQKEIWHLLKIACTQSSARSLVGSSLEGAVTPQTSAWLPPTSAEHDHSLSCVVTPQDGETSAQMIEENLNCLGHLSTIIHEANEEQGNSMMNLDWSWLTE
Sequence of Mitogen-activated protein kinase kinase kinase 8 (Homo sapiens) (P41279 whole entry): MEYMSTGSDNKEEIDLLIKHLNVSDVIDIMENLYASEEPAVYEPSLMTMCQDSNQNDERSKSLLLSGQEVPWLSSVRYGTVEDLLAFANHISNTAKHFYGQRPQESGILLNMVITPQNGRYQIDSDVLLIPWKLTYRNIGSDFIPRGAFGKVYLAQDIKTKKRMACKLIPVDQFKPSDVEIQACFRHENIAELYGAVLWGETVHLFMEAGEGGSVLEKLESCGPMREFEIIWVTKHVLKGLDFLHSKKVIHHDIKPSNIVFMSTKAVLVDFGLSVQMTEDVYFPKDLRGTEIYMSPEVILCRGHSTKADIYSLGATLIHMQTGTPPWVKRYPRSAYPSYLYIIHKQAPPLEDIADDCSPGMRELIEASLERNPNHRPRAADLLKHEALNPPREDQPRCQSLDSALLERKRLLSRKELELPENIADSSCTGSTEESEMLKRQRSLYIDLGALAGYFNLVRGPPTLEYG
Sequence of Serine/threonine-protein kinase ULK3 (Homo sapiens) (Q6PHR2 whole entry, the tested form may be a part): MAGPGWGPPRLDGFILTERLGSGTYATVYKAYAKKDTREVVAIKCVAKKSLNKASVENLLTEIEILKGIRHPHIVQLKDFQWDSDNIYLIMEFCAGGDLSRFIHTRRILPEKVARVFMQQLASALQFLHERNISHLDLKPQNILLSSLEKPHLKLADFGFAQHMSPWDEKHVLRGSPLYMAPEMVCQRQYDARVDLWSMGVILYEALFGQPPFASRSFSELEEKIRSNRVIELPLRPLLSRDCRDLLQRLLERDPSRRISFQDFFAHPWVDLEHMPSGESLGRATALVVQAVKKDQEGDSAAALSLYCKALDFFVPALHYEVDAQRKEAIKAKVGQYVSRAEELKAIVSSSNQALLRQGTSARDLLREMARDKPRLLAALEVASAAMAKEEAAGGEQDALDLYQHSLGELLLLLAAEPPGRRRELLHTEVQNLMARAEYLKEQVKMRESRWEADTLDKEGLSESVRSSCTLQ

## CCC(F)(F)c1cc(N2CCC(S(C)(=O)=O)CC2)nc2sc(C(N)=O)c(N)c12 [BI-605906]
[1]
  residual activity: 95%
[2]
  inhibition: 1.69%
[3]
  inhibition: 8.84%
[4]
  residual activity: 84%
[5]
  residual activity: 88%
[6]
  residual activity: 84%
[7]
  activity at 10 µM: 68% (not active)
[8]
  residual activity: 85%
[9]
  residual activity: 40.1%
[10]
  residual activity: 101%
[11]
  residual activity: 111%
[12]
  residual activity: 63.8%
[13]
  residual activity: 96%
[14]
  residual activity: 86%
[15]; Compound concentration 1.0 uM
  residual activity: 67%
[15]; Compound concentration 10.0 uM
  residual activity: 27%
[16]
  residual activity: 78.4%
[17]
  residual activity: 98%
[18]
  residual activity: 73.8%
[19]
  residual activity: 94%
[20]
  residual activity: 61.7%
[21]; Compound concentration 1.0 uM
  residual activity: 100%
[21]; Compound concentration 10.0 uM
  residual activity: 90%
[22]
  residual activity: 85%
[23]
  residual activity: 91%
[24]; Compound concentration 1.0 uM
  residual activity: 95%
[24]; Compound concentration 10.0 uM
  residual activity: 80%
[25]
  residual activity: 97%
[26]
  residual activity: 99%
[27]
  residual activity: 67.2%
[28]
  residual activity: 101%
[29]
  residual activity: 84%
[30]
  residual activity: 97%
[31]
  residual activity: 95%
[32]
  residual activity: 95%
[33]
  residual activity: 90%
[34]; Compound concentration 1.0 uM
  residual activity: 89%
[34]; Compound concentration 10.0 uM
  residual activity: 87%
[35]
  residual activity: 56.3%
[36]; Compound concentration 1.0 uM
  residual activity: 95%
[36]; Compound concentration 10.0 uM
  residual activity: 77%
[37]
  residual activity: 101%
[38]
  residual activity: 90%
[39]
  residual activity: 77.5%
